Laboratory results: BindingDB's records for doi:10.1021/jm701509k (Astrazeneca, 2008)

Biological target: Hematopoietic prostaglandin D synthase (Homo sapiens, UniProt O60760)
Test: In Vitro GST Activity Assay
Settings: pH 7.2; 22 °C
Procedure: The PGDS glutathione-S-transferase (GST) activity was measured by using MonoChloroBimane (MCB) as a chromogenic substrate. The assay was run at 384-well format in reaction buffer containing enzyme and test compound. Then MCB and GSH were added for further incubation. After reaction was stopped, the fluorescence was measured (excitation: 390 nm; emission: 478 nm).

Hematopoietic prostaglandin D synthase, sequence (O60760 whole entry): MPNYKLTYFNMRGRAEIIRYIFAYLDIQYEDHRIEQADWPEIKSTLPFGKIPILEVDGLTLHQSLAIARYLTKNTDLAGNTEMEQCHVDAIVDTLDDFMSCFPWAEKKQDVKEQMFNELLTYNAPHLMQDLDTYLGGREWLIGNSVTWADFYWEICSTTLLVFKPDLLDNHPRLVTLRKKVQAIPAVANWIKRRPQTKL

## COc1ccc(-c2cc3c(nn2)-c2ccccc2C3=O)cc1
  IC50: 3.8 µM

## CCOC(=O)c1cc(OC)c(-c2ccccc2)nn1 [ethyl 5-methoxy-6-phenylpyridazine-3-carboxylate]
  IC50: 45 µM
